Assay results reported in patent publication US20130309306A1, “INTRAPULMONARY BENZODIAZEPINE FOR THE TREATMENT AND PREVENTION OF SEIZURES” (priority 2010, published 2013).
Marks after values point to notes of the source that are not given here.

Tests used:
[1] = Horizontal screen test, acute motor toxicity; assay type: in vivo, mice; conditions: intratracheal 100 μg/kg, any time point of the time course experiment
Procedure: The horizontal screen test was used to assess the acute motor toxicity of intratracheal midazolam (100 μg/kg) in the time course experiment.

PTZ-induced convulsions = PTZ-induced convulsions in mice (PTZ 80 mg/kg i.p.); assay type: in vivo
Procedure: (§1) Male NIH Swiss mice (22-30 g) were kept in a vivarium under controlled environmental conditions (temperature, 22-26° C.; humidity, 40-50%) with an artificial 12-h light/dark cycle. Wood chips were used in all cages. Experiments were performed during the light phase of the light/dark cycle after a minimum 30-min period of acclimation to the experimental room. The animal facilities were fully accredited by the Association for Assessment and Accreditation of Laboratory Animal Care. All studies were performed under protocols approved by the Animal Care and Use Committee of the University of California, Davis in strict compliance with the Guide for the Care and Use of Laboratory Animals of the National Research Council (National Academy Press, Washington, D.C.).
Intratracheal administration of midazolam was carried out as described by Oka et al. (2006). In brief, mice were briefly anesthetized using isoflurane anesthesia (4% isoflurane). The animals were immediately placed on a surgical board held at a 60° angle. The animal's mouth was kept open by hanging the upper incisors on a hook to facilitate detection of the epiglottis. An operating light was used to illuminate the view of the pharynx after displacement of the tongue with a spatula. A syringe fitted with a blunted 24-gauge/25-mm was pushed against the soft palate to enter the trachea past the vocal cords. When the tracheal cartilage ring is felt, the needle is considered properly placed within the tracheal lumen. The needle was inserted almost to the bottom of the trachea. When the animals began to show signs that the anesthesia was waning, the liquid sample was gently injected at a dose volume of 0.25 ml/kg. After the injection of solution, air (1 ml syringe) was blown inside the lungs to uniformly distribute the drug in the lungs. Following the injection, the needle was gently removed and animal was held vertically for 2 min to facilitate the downward movement of liquid in the lungs. The animal was allowed 10 min to recover fully from the anesthesia as confirmed by normal spontaneous exploratory behavior. Seizure testing then commenced. For each of the seizure tests, we verified that there was no residual effect of the anesthetic on responsiveness.
PTZ was administered intraperitoneally at a dose of 80 mg/kg, which causes clonic convulsions in >97% of mice (Dhir et al., 2006). […] The time of onset of myoclonic jerks, clonus and tonic extension; and the incidence of lethality was recorded.
Results are expressed as mean±S.E.M.; the significance of the difference in the responses of treatment groups with respect to control is based on one-way analysis of variance (ANOVA) followed by specific post-hoc comparisons using Tukey's test. Differences were considered statistically significant when the probability of error was less than 0.05 (P<0.05). Control values in the threshold tests were the mean threshold values for vehicle-treated groups.

[2] = system: kainic acid induced seizure; assay: Kainic acid seizure threshold test in mice (intravenous infusion); assay type: in vivo
Procedure: as §1
Intratracheal administration of midazolam was carried out as described by Oka et al. (2006). In brief, mice were briefly anesthetized using isoflurane anesthesia (4% isoflurane). The animals were immediately placed on a surgical board held at a 60° angle. The animal's mouth was kept open by hanging the upper incisors on a hook to facilitate detection of the epiglottis. […]
Results are expressed as mean±S.E.M.; the significance of the difference in the responses of treatment groups with respect to control is based on one-way analysis of variance (ANOVA) followed by specific post-hoc comparisons using Tukey's test. […]

[3] = intraperitoneal 100 μg/kg, pretreatment 10 min
[4] = intraperitoneal 500 μg/kg, pretreatment 10 min
[5] = intraperitoneal 750 μg/kg, pretreatment 10 min
[6] = intraperitoneal 1000 μg/kg, pretreatment 10 min
[7] = intratracheal 12.5 μg/kg, pretreatment 10 min
[8] = intratracheal 25 μg/kg, pretreatment 7 min
[9] = intratracheal 25 μg/kg, pretreatment 10 min
[10] = intratracheal 50 μg/kg, pretreatment 7 min
[11] = intratracheal 50 μg/kg, pretreatment 10 min
[12] = intratracheal 100 μg/kg, pretreatment 7 min
[13] = intratracheal 100 μg/kg, pretreatment 10 min
[14] = intratracheal 200 μg/kg, pretreatment 10 min

Question: For `Cc1ncc2n1-c1ccc(Cl)cc1C(c1ccccc1F)=NC2` [Midazolam, midazolam], which “acute motor toxicity, horizontal screen test” value [1] is on record?
Answer: Its value is “No motor toxicity was observed”.

Question: What about the Mortality (PTZ-induced convulsions; [3]) of the same compound?
Answer: Its Mortality is 66.67* percent.

Question: What about the Percent showing clonus (PTZ-induced convulsions; [3]) of the same compound?
Answer: The Percent showing clonus was 100%.

Question: And the Percent showing extensor (PTZ-induced convulsions; [3])?
Answer: The Percent showing extensor was 66.67* percent.

Question: And the “Percent showing myoclonic jerks” value (PTZ-induced convulsions; [3])?
Answer: Its value is 100%.

Question: What about the Mortality (PTZ-induced convulsions; [4]) of the same compound?
Answer: The Mortality was 0* percent.

Question: And the Percent showing clonus (PTZ-induced convulsions; [4])?
Answer: The Percent showing clonus was 83.33%.

Question: And the Percent showing extensor (PTZ-induced convulsions; [4])?
Answer: Its Percent showing extensor is 0* percent.

Question: And the “Percent showing myoclonic jerks” value (PTZ-induced convulsions; [4])?
Answer: Its value is 100%.

Question: What about the Mortality (PTZ-induced convulsions; [5]) of the same compound?
Answer: The Mortality was 0* percent.

Question: And the Percent showing clonus (PTZ-induced convulsions; [5])?
Answer: Its Percent showing clonus is 33.33* percent.

Question: What about the Percent showing extensor (PTZ-induced convulsions; [5]) of the same compound?
Answer: Its Percent showing extensor is 0* percent.

Question: What about the “Percent showing myoclonic jerks” value (PTZ-induced convulsions; [5]) of the same compound?
Answer: The value was 83.33%.

Question: And the Mortality (PTZ-induced convulsions; [6])?
Answer: The Mortality was 0* percent.

Question: And the Percent showing clonus (PTZ-induced convulsions; [6])?
Answer: The Percent showing clonus was 0* percent.

Question: What about the Percent showing extensor (PTZ-induced convulsions; [6]) of the same compound?
Answer: The Percent showing extensor was 0* percent.

Question: What about the “Percent showing myoclonic jerks” value (PTZ-induced convulsions; [6]) of the same compound?
Answer: The value was 50* percent.

Question: What about the Mortality (PTZ-induced convulsions; [7]) of the same compound?
Answer: The Mortality was 83.33%.

Question: And the Percent showing clonus (PTZ-induced convulsions; [7])?
Answer: The Percent showing clonus was 100%.

Question: What about the Percent showing extensor (PTZ-induced convulsions; [7]) of the same compound?
Answer: Its Percent showing extensor is 83.33%.

Question: What about the “Percent showing myoclonic jerks” value (PTZ-induced convulsions; [7]) of the same compound?
Answer: The value was 100%.

Question: What about the Mortality (PTZ-induced convulsions; [8]) of the same compound?
Answer: The Mortality was 0* percent.

Question: And the Percent showing clonus (PTZ-induced convulsions; [8])?
Answer: Its Percent showing clonus is 83.33%.

Question: What about the Percent showing extensor (PTZ-induced convulsions; [8]) of the same compound?
Answer: The Percent showing extensor was 0* percent.

Question: What about the “Percent showing myoclonic jerks” value (PTZ-induced convulsions; [8]) of the same compound?
Answer: The value was 100%.

Question: And the Mortality (PTZ-induced convulsions; [9])?
Answer: Its Mortality is 50* percent.

Question: What about the Percent showing clonus (PTZ-induced convulsions; [9]) of the same compound?
Answer: Its Percent showing clonus is 100%.

Question: What about the Percent showing extensor (PTZ-induced convulsions; [9]) of the same compound?
Answer: The Percent showing extensor was 50* percent.

Question: And the “Percent showing myoclonic jerks” value (PTZ-induced convulsions; [9])?
Answer: The value was 100%.

Question: What about the Mortality (PTZ-induced convulsions; [10]) of the same compound?
Answer: The Mortality was 0* percent.

Question: And the Percent showing clonus (PTZ-induced convulsions; [10])?
Answer: The Percent showing clonus was 50* percent.

Question: And the Percent showing extensor (PTZ-induced convulsions; [10])?
Answer: Its Percent showing extensor is 0* percent.

Question: And the “Percent showing myoclonic jerks” value (PTZ-induced convulsions; [10])?
Answer: Its value is 66.66* percent.

Question: What about the Mortality (PTZ-induced convulsions; [11]) of the same compound?
Answer: The Mortality was 16.66* percent.

Question: What about the Percent showing clonus (PTZ-induced convulsions; [11]) of the same compound?
Answer: The Percent showing clonus was 66.66* percent.

Question: What about the Percent showing extensor (PTZ-induced convulsions; [11]) of the same compound?
Answer: The Percent showing extensor was 16.66* percent.

Question: What about the “Percent showing myoclonic jerks” value (PTZ-induced convulsions; [11]) of the same compound?
Answer: Its value is 83.33%.

Question: And the Mortality (PTZ-induced convulsions; [12])?
Answer: Its Mortality is 0* percent.

Question: And the Percent showing clonus (PTZ-induced convulsions; [12])?
Answer: Its Percent showing clonus is 0* percent.

Question: What about the Percent showing extensor (PTZ-induced convulsions; [12]) of the same compound?
Answer: The Percent showing extensor was 0* percent.

Question: What about the “Percent showing myoclonic jerks” value (PTZ-induced convulsions; [12]) of the same compound?
Answer: Its value is 0* percent.

Question: What about the Mortality (PTZ-induced convulsions; [13]) of the same compound?
Answer: Its Mortality is 0* percent.

Question: And the Percent showing clonus (PTZ-induced convulsions; [13])?
Answer: Its Percent showing clonus is 50* percent.

Question: What about the Percent showing extensor (PTZ-induced convulsions; [13]) of the same compound?
Answer: The Percent showing extensor was 0* percent.

Question: What about the “Percent showing myoclonic jerks” value (PTZ-induced convulsions; [13]) of the same compound?
Answer: The value was 50* percent.

Question: What about the Mortality (PTZ-induced convulsions; [14]) of the same compound?
Answer: Its Mortality is 0* percent.

Question: And the Percent showing clonus (PTZ-induced convulsions; [14])?
Answer: Its Percent showing clonus is 0* percent.

Question: And the Percent showing extensor (PTZ-induced convulsions; [14])?
Answer: Its Percent showing extensor is 0* percent.

Question: And the “Percent showing myoclonic jerks” value (PTZ-induced convulsions; [14])?
Answer: The value was 0* percent.

Question: And the “thresholds for clonus and tonic extensor phases, kainic acid infusion” value ([2]; intraperitoneal 2000 μg/kg, pretreatment 10 min (FIG. 4A))?
Answer: The value was “significant elevation”.

Question: What about the “seizure thresholds, kainic acid infusion” value ([2]; intratracheal 100 μg/kg, pretreatment 10 min (FIG. 4B)) of the same compound?
Answer: The value was “effective”.
